The test system of data set [1] is Puccinia recondita f. Sp. Tritici. As to the kind of experiment: Puccinia recondita f. sp. tritici / wheat / leaf disc preventative (brown rust). Format: in vivo. The following applies: foliar, compared to untreated control, read-out: disease control. The procedure:
Puccinia recondita f. Sp. Tritici/Wheat/Leaf Disc Preventative (Brown Rust) Wheat leaf segments cv. Kanzler were placed on agar in multiwell plates (24-well format) and sprayed with the formulated test compound or mixture composition diluted in water. The leaf disks were inoculated with a spore suspension of the fungus 1 day after application. The inoculated leaf segments were incubated at 19° C. and 75% rh under a light regime of 12 h light/12 h darkness in a climate cabinet and the activity of a compound or mixture composition was assessed as percent disease control compared to untreated when an appropriate level of disease damage appears in untreated check leaf segments (7-9 days after application).

The subject of data set [2] is Phakopsora pachyrhizi. As to the kind of experiment: Phakopsora pachyrhizi / soybean / preventative (soybean rust). Format: in vivo. The following applies: foliar, soybean leaf disc, compared to untreated control. As for the experimental part:
Phakopsora pachyrhizi/Soybean/Preventative (Soybean Rust) Soybean leaf disks are placed on water agar in multiwell plates (24-well format) and sprayed with the formulated test compound diluted in water. One day after application leaf discs are inoculated by spraying a spore suspension on the lower leaf surface. After an incubation period in a climate cabinet of 24-36 hours in darkness at 20° C. and 75% rh leaf disc are kept at 20° C. with 12 h light/day and 75% rh. The activity of a compound is assessed as percent disease control compared to untreated when an appropriate level of disease damage appears in untreated check leaf disks (12-14 days after application).

The subject of data set [3] is Puccinia recondita f. Sp. Tritici. The experiment in a line: Puccinia recondita f. sp. tritici / wheat / leaf disc curative (brown rust). Type of data set: in vivo. The following applies: foliar, compared to untreated control, read-out: disease control. As for the experimental part: Puccinia recondita f. Sp. Tritici/Wheat/Leaf Disc Curative (Brown Rust)
Wheat leaf segments cv. Kanzler are placed on agar in multiwell plates (24-well format). The leaf segments are inoculated with a spore suspension of the fungus. Plates were stored in darkness at 19° C. and 75% rh. The formulated test compound or mixture composition diluted in water was applied 1 day after inoculation. The leaf segments were incubated at 19° C. and 75% rh under a light regime of 12 h light/12 h darkness in a climate cabinet and the activity of a compound or mixture composition was assessed as percent disease control compared to untreated when an appropriate level of disease damage appears in untreated check leaf segments (6-8 days after application).

Data set [4] relates to Blumeria graminis f. Sp. Tritici (Erysiphe graminis f. Sp. Tritici). As to the kind of experiment: Blumeria graminis f. sp. tritici / wheat / leaf disc preventative (powdery mildew on wheat). Format: in vivo. The following applies: foliar, compared to untreated control, read-out: disease control. The procedure: Blumeria graminis f. Sp. Tritici (Erysiphe graminis f. Sp. Tritici)/Wheat/Leaf Disc Preventative (Powdery Mildew on Wheat)
Wheat leaf segments cv. Kanzler were placed on agar in a multiwell plate (24-well format) and sprayed with the formulated test compound or mixture composition diluted in water. The leaf disks were inoculated by shaking powdery mildew infected plants above the test plates 1 day after application. The inoculated leaf disks were incubated at 20° C. and 60% rh under a light regime of 24 h darkness followed by 12 h light/12 h darkness in a climate chamber and the activity of a compound or mixture composition was assessed as percent disease control compared to untreated when an appropriate level of disease damage appears on untreated check leaf segments (6-8 days after application).

Here are results for 10 compounds from US11154058B2, “Fungicidal compositions” (SYNGENTA PARTICIPATIONS AG, priority 2017, dated 2021).

In general, melting point refers to the temperature, or range, at which the solid turns liquid.

Consider `CCO/N=C(\C)CC(O)(c1cc(C)c(/N=C/N(C)CC)cc1OC)C(F)(F)F` (centres unmarked) [Q.001, N′-[4-[(3E)-3-ethoxyimino-1-hydroxy-1-(trifluoromethyl)butyl]-5-methoxy-2-methyl-phenyl]-N-ethyl-N-methyl-formamidine], for which the pest or weed control at 200 ppm in data set [1], in data set [2], in data set [3] and in data set [4] was not below 80% each time.
Turning to `CCCCOCC(O)(c1cc(C)c(/N=C/N(C)CC)cc1OC)C(F)(F)F` (centres unmarked) [Q.002, N′-[4-[1-(butoxymethyl)-2,2,2-trifluoro-1-hydroxy-ethyl]-5-methoxy-2-methyl-phenyl]-N-ethyl-N-methyl-formamidine], the pest or weed control at 200 ppm in data set [1], in data set [2], in data set [3] and in data set [4] was not below 80% throughout.
`COc1cc(/N=C/N(C)C(C)C)c(C)cc1C(O)(C1CC1)C(F)(F)F` (centres unmarked) [Q.003, N′-[4-(1-cyclopropyl-2,2,2-trifluoro-1-hydroxy-ethyl)-5-methoxy-2-methyl-phenyl]-N-isopropyl-N-methyl-formamidine] returned a melting point of 90 to 93 °C. Besides, the pest or weed control at 200 ppm in data set [1] was not below 80%. The compound further showed a pest or weed control at 200 ppm in data set [2] not below 80%. The pest or weed control at 200 ppm in data set [3] was not below 80%. For the same compound, the pest or weed control at 200 ppm in data set [4] is not below 80%.
Take `CCN(C)/C=N/c1cc(OC)c(C(O)(COCC2CCC2)C(F)(F)F)cc1C` (centres unmarked) [Q.004, N′-[4-[1-(cyclobutylmethoxymethyl)-2,2,2-trifluoro-1-hydroxy-ethyl]-5-methoxy-2-methyl-phenyl]-N-ethyl-N-methyl-formamidine]: the pest or weed control at 200 ppm in data set [1], in data set [2], in data set [3] and in data set [4] was not below 80% each time.
Take `CCN(C)/C=N/c1cc(OC)c(C(O)(COC2CCCC2)C(F)(F)F)cc1C` (centres unmarked) [Q.005, N′-[4-[1-(cyclopentoxymethyl)-2,2,2-trifluoro-1-hydroxy-ethyl]-5-methoxy-2-methyl-phenyl]-N-ethyl-N-methyl-formamidine]: the pest or weed control at 200 ppm in data set [2] is not below 80%.
`C=C(C)CC(O)(c1cc(C)c(/N=C/N(C)C(C)C)cc1OC)C(F)(F)F` (centres unmarked) [Q.006, N′-[4-[1-hydroxy-3-methyl-1-(trifluoromethyl)but-3-enyl]-5-methoxy-2-methyl-phenyl]-N-isopropyl-N-methyl-formamidine] yielded a melting point of 90 to 95 °C. The pest or weed control at 200 ppm in data set [1] was not below 80%. This compound also returned a pest or weed control at 200 ppm in data set [2] not below 80%. For the same compound, in data set [3], the pest or weed control at 200 ppm was not below 80%. Also, the pest or weed control at 200 ppm in data set [4] was not below 80%.
With `CCCCC(O)(c1cc(C)c(/N=C/N(C)C(C)C)cc1OC)C(F)(F)F` (centres unmarked) [Q.007, N′-[4-[1-hydroxy-1-(trifluoromethyl)pentyl]-5-methoxy-2-methyl-phenyl]-N-isopropyl-N-methyl-formamidine], the pest or weed control at 200 ppm in data set [1], in data set [2], in data set [3] and in data set [4] was not below 80% each time.
`COc1cc(/N=C/N(C)C(C)C)c(C)cc1C(O)(c1ccccc1)C(F)(F)F` (centres unmarked) [Q.008, N-isopropyl-N′-[5-methoxy-2-methyl-4-(2,2,2-trifluoro-1-hydroxy-1-phenyl-ethyl)phenyl]-N-methyl-formamidine] yielded a melting point of 110 to 111 °C. Besides, the pest or weed control at 200 ppm in data set [1] was not below 80%. Also, the pest or weed control at 200 ppm in data set [2] was not below 80%. Moreover, the pest or weed control at 200 ppm in data set [3] was not below 80%.
For the compound `CCN(C)/C=N/c1cc(OC)c(C(O)(c2ccccc2C)C(F)(F)F)cc1C` (centres unmarked) [Q.009, N-ethyl-N′-[5-methoxy-2-methyl-4-[2,2,2-trifluoro-1-hydroxy-1-(o-tolyl)ethyl]phenyl]-N-methyl-formamidine], the melting point fell in the range of 115 to 117 °C. Also, the pest or weed control at 200 ppm in data set [1] was not below 80%. In data set [2], this compound yielded a pest or weed control at 200 ppm not below 80%. The pest or weed control at 200 ppm in data set [3] is not below 80%. Further, in data set [4], the pest or weed control at 200 ppm is not below 80%.
On to `CCN(C)/C=N/c1cc(OC)c(C(O)(c2cc(F)cc(F)c2)C(F)(F)F)cc1C` (centres unmarked) [Q.010, N′-[4-[1-(3,5-difluorophenyl)-2,2,2-trifluoro-1-hydroxy-ethyl]-5-methoxy-2-methyl-phenyl]-N-ethyl-N-methyl-formamidine], for which the melting point lay in the range of 107 to 108 °C. Also, the pest or weed control at 200 ppm in data set [1] was not below 80%. The compound further returned a pest or weed control at 200 ppm in data set [2] not below 80%. In addition, the pest or weed control at 200 ppm in data set [3] is not below 80%. In addition, the pest or weed control at 200 ppm in data set [4] is not below 80%.
